According to the supplement of paper PMC10307832:

How the values were obtained:
Test in all cases: relative viability (nuclei count vs DMSO), 5 days (fraction); higher = more cells survive
Quizartinib + Foretinib = compound: CC(C)(C)c1cc(NC(=O)Nc2ccc(-c3cn4c(n3)sc3cc(OCCN5CCOCC5)ccc34)cc2)no1 [Quizartinib] + COc1cc2c(Oc3ccc(NC(=O)C4(C(=O)Nc5ccc(F)cc5)CC4)cc3F)ccnc2cc1OCCCN1CCOCC1 [Foretinib] (partner 0.25 µM)
Method in brief: (§1)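 For relative viability, nuclei counts in treated wells were divided by those in vehicle wells. Lung cancer cell lines had been pin-tool dosed in 1536-well plates the day after seeding and cultured for 5 days, then fixed and stained in one step (final 0.05% Triton X-100, 1% formaldehyde, 1 ug/ml Hoechst) and imaged at 4×. Doses were one drug alone or a fixed anchor-drug dose plus five library-drug doses (not always all listed) in √10 steps, and values are duplicate-plate medians.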

YM155 + Navitoclax = compound: COCC[n+]1c2c(n(Cc3cnccn3)c1C)C(=O)c1ccccc1C2=O [YM155] + CC1(C)CCC(c2ccc(Cl)cc2)=C(CN2CCN(c3ccc(C(=O)NS(=O)(=O)c4ccc(N[C@H](CCN5CCOCC5)CSc5ccccc5)c(S(=O)(=O)C(F)(F)F)c4)cc3)CC2)C1 [Navitoclax] (partner 0.5 µM)
Method in brief: as §1

Quizartinib + Decitabine = compound: CC(C)(C)c1cc(NC(=O)Nc2ccc(-c3cn4c(n3)sc3cc(OCCN5CCOCC5)ccc34)cc2)no1 [Quizartinib] + Nc1ncn([C@H]2C[C@H](O)[C@@H](CO)O2)c(=O)n1 [Decitabine] (partner 2 µM)
Method in brief: as §1

YM155 + Decitabine = compound: COCC[n+]1c2c(n(Cc3cnccn3)c1C)C(=O)c1ccccc1C2=O [YM155] + Nc1ncn([C@H]2C[C@H](O)[C@@H](CO)O2)c(=O)n1 [Decitabine] (partner 2 µM)
Method in brief: as §1

| Cell Line | relative viability (Quizartinib + Foretinib; first compound 0.001 µM) | relative viability (Quizartinib + Foretinib; first compound 0.003162 µM) | relative viability (Quizartinib + Foretinib; first compound 0.01 µM) | relative viability (Quizartinib + Foretinib; first compound 0.03162 µM) | relative viability (Quizartinib + Foretinib; first compound 0.1 µM) | relative viability (YM155 + Navitoclax; first compound 0.002 µM) | relative viability (YM155 + Navitoclax; first compound 0.006325 µM) | relative viability (YM155 + Navitoclax; first compound 0.02 µM) | relative viability (YM155 + Navitoclax; first compound 0.06325 µM) | relative viability (Quizartinib + Decitabine; first compound 0.001 µM) | relative viability (Quizartinib + Decitabine; first compound 0.003162 µM) | relative viability (Quizartinib + Decitabine; first compound 0.03162 µM) | relative viability (Quizartinib + Decitabine; first compound 0.1 µM) | relative viability (YM155 + Decitabine; first compound 0.002 µM) | relative viability (YM155 + Decitabine; first compound 0.006325 µM) | relative viability (YM155 + Decitabine; first compound 0.02 µM) | relative viability (YM155 + Decitabine; first compound 0.06325 µM) | relative viability (Quizartinib + Decitabine; first compound 0.01 µM) |
| --- | --- | --- | --- | --- | --- | --- | --- | --- | --- | --- | --- | --- | --- | --- | --- | --- | --- | --- |
| HCC-827 | 1.02 | 0.922 | 1.07 | 1.06 | 1.07 | 1.03 | 1.11 | 1.01 | 0.992 | 0.291 | 0.358 | 0.313 | 0.334 | 0.352 | 0.408 | 0.299 | 0.354 | – |
| HOP-62 | 0.907 | 1.09 | 1.22 | 1.07 | 1.09 | 0.97 | 0.969 | 0.979 | 1.11 | 0.215 | 0.219 | 0.227 | 0.213 | 0.221 | 0.242 | 0.235 | 0.214 | 0.217 |
| IA-LM | 1.05 | 1.01 | 1.17 | 1.14 | 1.02 | 0.723 | 0.757 | 0.811 | 0.585 | – | – | – | – | – | – | – | – | – |
| LC-2-ad | 0.883 | 0.857 | 0.977 | – | 0.904 | 0.414 | 0.479 | 0.456 | 0.509 | 0.718 | 0.81 | 0.841 | 0.68 | 0.773 | 0.788 | 0.742 | 0.706 | 0.776 |
| LCLC-97TM1 | 0.889 | 0.802 | 0.906 | 0.953 | 0.971 | 0.319 | 0.394 | 0.391 | 0.376 | 0.225 | 0.253 | 0.218 | 0.21 | – | 0.178 | 0.202 | 0.254 | 0.237 |
| LCLC-103H | 0.786 | 0.7 | 0.8 | 0.788 | 0.995 | – | – | – | – | 0.632 | 0.735 | 0.796 | 0.759 | 0.747 | 0.735 | 0.731 | 0.716 | 0.682 |
| LK-2 | 1.29 | – | 1.03 | 1.33 | 1.43 | 0.776 | 0.855 | 0.85 | 1.09 | 0.263 | 0.215 | 0.348 | 0.438 | 0.29 | 0.14 | 0.341 | 0.362 | 0.363 |
| LOU-NH91 | 0.967 | 0.903 | 0.906 | 0.902 | 1.02 | 0.748 | 0.677 | 0.725 | 0.716 | 0.746 | 0.815 | 0.79 | 0.89 | 0.766 | 0.812 | 0.852 | 0.831 | 0.862 |
| LU99A | 0.715 | 0.871 | 0.838 | 0.808 | 0.603 | 0.753 | 0.729 | 0.756 | 0.677 | 0.923 | 0.918 | 0.895 | 0.625 | 0.84 | 0.808 | 0.824 | 0.936 | 1.02 |
| LXF-289 | 0.913 | 1 | 1.13 | 0.948 | 0.888 | 0.94 | 0.949 | 0.957 | 0.87 | 0.347 | 0.321 | 0.432 | 0.42 | 0.354 | 0.39 | 0.371 | 0.379 | 0.427 |
| NCI-H23 | – | 1.03 | 0.975 | 0.934 | 0.819 | 0.727 | 0.879 | 0.967 | 0.269 | 0.267 | 0.266 | 0.278 | 0.317 | – | 0.278 | 0.291 | 0.363 | 0.33 |
| NCI-H358 | 0.613 | 0.796 | 0.634 | 0.438 | 0.642 | – | – | – | – | 0.194 | 0.209 | – | 0.192 | 0.257 | 0.2 | 0.199 | 0.22 | 0.232 |
| NCI-H522 | – | – | – | – | – | – | – | – | – | 0.684 | 0.7 | 0.603 | 0.618 | 0.72 | 0.664 | 0.684 | 0.668 | 0.67 |
| NCI-H650 | 1.02 | 1.04 | 1.16 | 0.978 | 1.18 | – | – | – | – | 0.319 | 0.286 | 0.365 | 0.384 | 0.329 | 0.3 | 0.282 | 0.293 | 0.342 |
| NCI-H661 | 0.963 | 0.945 | 1.13 | 0.994 | 1.01 | – | – | – | – | 0.55 | 0.5 | 0.561 | 0.599 | 0.516 | 0.516 | 0.533 | 0.47 | 0.577 |
| NCI-H1299 | 1.06 | 1.05 | 1.14 | 1.05 | 1.12 | 1.08 | 0.996 | 1.01 | 1.03 | – | – | – | – | – | – | – | – | – |
| NCI-H1563 | 0.975 | 0.898 | 0.884 | 0.631 | 0.881 | – | – | – | – | – | – | – | – | – | – | – | – | – |
| NCI-H1648 | – | – | – | – | – | – | – | – | – | – | 0.461 | 0.548 | 0.745 | – | 0.593 | 0.41 | 0.599 | – |
| NCI-H1703 | 0.514 | 0.35 | 0.371 | 0.406 | 0.282 | 1.07 | 1.29 | 0.938 | 0.319 | – | – | – | – | – | – | – | – | – |
| NCI-H1792 | – | – | – | – | – | 0.595 | 0.615 | 0.63 | 0.612 | 0.459 | 0.502 | 0.449 | 0.577 | 0.453 | 0.514 | 0.6 | 0.566 | 0.598 |
| NCI-H2228 | 0.927 | 0.954 | 1.01 | 0.715 | 1.02 | 1.03 | 0.487 | 0.956 | 0.857 | – | – | – | – | – | – | – | – | – |
| NCI-H2342 | 0.965 | 0.938 | 1.11 | 1 | 0.988 | – | – | – | – | 0.749 | 0.763 | 0.729 | 0.724 | 0.729 | 0.709 | 0.788 | 0.717 | 0.678 |
| SW 900 | 0.802 | 0.85 | – | 0.882 | 0.836 | – | – | – | – | 0.42 | 0.392 | 0.372 | 0.336 | – | 0.431 | 0.399 | 0.458 | 0.422 |
